Assay type in all cases: cell-based
The test system of experiment [1] is collagenase. The experiment is described as follows: Inhibition of collagenase expression (collagenase production) in human fibroblasts, ELISA absorbance at 405 nm. Particulars: 24 h treatment, extracts 100 μg/ml (Example 3: 100 μg/ml of each extract), retinoic acid 1 μM, untreated control = 100. On the procedure: Using the Lycium chinense fruit extract obtained in Example 1, the pine tree extract obtained in Example 2, and a 1:1 (w/w) mixture (Example 3) of a Lycium chinense fruit extract obtained by extracting 100 g of Lycium chinense fruits according to the method of Example 1 and a pine needle extract obtained by extracting 100 g of pine needles according to the method of Example 2, their effects on the inhibition of collagenase expression (collagenase production) were measured in the following manner. As a positive control, retinoic acid known to inhibit collagenase expression was used. […]
Next, the degree of collagenase production in each of the harvested cell cultures was measured using a collagenase measurement device (Amersham Phamasia, USA). […]
The absorbance of the 96-well plate having a yellow color was measured at 405 nm using an absorbance spectrometer, and the expression of collagenase was calculated using the following Equation 1. Herein, the absorbance of an untreated group was used as a control group. That is, the expression of collagenase in the control group was set at 100, and the expression of collagenase in each test group was calculated relative to the control group. […]
wherein A is the absorbance of the cell group treated with each test material, and B is the absorbance of the control group.
Background: In an ELISA, binding on a coated surface is turned into a signal by an enzyme label.

Experiment [2] has as its target T1, retinoic acid receptor γ (RAR-γ) (Homo sapiens, UniProt P13631).
T1 construct: expressed in transfected cells; host or cells: monkey kidney epithelial CV-1 cells
T1 sequence (P13631 1-454): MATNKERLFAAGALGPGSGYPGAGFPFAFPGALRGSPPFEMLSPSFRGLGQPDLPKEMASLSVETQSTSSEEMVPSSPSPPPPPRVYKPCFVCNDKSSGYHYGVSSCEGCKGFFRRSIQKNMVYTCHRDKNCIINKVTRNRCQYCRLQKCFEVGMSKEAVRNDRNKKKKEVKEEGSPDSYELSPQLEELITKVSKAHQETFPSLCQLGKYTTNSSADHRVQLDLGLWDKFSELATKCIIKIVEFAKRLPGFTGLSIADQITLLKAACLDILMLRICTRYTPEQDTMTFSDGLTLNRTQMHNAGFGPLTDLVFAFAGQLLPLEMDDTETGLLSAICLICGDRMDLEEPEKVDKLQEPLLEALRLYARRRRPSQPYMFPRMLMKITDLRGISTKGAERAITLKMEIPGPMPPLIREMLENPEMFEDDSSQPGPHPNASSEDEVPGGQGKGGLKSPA
The experiment is described as follows: Retinoic acid receptor γ transcriptional activity, luciferase reporter in transfected CV-1 cells. The settings on record: monkey kidney epithelial CV-1 cells, 20 h; extracts 100 μg/ml (Example 3: 100 μg/ml of each extract), retinoic acid 1 μM; corrected with β-galactosidase activity; control = 100. On the procedure: (§1) Using the Lycium chinense extract obtained in Example 1, the pine needle extract obtained in Example 2, and the Lycium chinense extract/pine needle extract mixture (Example 3) obtained by mixing the extract of Example 1 with the extract of Example 2, their effects on retinoic acid receptor α/γ (RAR-α/γ) transcriptional activities were measured in the following manner. As a positive control, retinoic acid known to activate retinoic acid receptor was used.
(§2) First, monkey kidney epithelial CV-1 cells were seeded into a 24-well plate at a concentration of 4×10^4 cells/well and cultured for 12-16 hours. Before transfection, the plate was washed with phosphate buffered saline (PBS), and then the medium was cultured. […] Then, each of the cell lysates was transferred to a cell culture plate (Costar) for a 96-well luminometer, and luciferase activity for each cell lysate was measured using Luciferase Assay System™ kit (Promega Corporation) according to the manufacturer's instruction. […]
(§3) Next, 50 μl of 1 M sodium carbonate (Na2CO3) solution was added to each well, and the absorbance of each well at 415 nm was measured. The efficiency of transformation in each cell lysate was corrected with the β-galactosidase activity measured as described above, and the relative activity of luciferase to the β-galactosidase activity was calculated and compared between Examples.

Experiment [3] addresses T2, retinoic acid receptor α (RAR-α) (Homo sapiens, UniProt P10276).
T2 construct: expressed in transfected cells; host or cells: monkey kidney epithelial CV-1 cells
T2 sequence (P10276 1-462): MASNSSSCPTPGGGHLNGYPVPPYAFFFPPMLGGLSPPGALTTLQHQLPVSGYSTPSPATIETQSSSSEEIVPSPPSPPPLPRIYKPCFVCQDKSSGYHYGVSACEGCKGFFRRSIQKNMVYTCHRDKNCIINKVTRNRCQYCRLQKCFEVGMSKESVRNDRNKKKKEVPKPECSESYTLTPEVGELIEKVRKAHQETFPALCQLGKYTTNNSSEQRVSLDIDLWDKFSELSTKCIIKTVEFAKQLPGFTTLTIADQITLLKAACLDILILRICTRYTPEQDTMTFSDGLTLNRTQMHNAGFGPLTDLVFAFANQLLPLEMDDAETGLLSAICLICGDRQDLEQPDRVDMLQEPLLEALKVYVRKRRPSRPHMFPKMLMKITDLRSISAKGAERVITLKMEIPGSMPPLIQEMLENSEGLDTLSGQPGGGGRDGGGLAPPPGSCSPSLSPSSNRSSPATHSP
The experiment is described as follows: Retinoic acid receptor α transcriptional activity, luciferase reporter in transfected CV-1 cells. Particulars: monkey kidney epithelial CV-1 cells, 20 h; extracts 100 μg/ml (Example 3: 100 μg/ml of each extract), retinoic acid 1 μM; corrected with β-galactosidase activity; control = 100. On the procedure:
as §1, §2, §3

For `CC1=C(/C=C/C(C)=C/C=C/C(C)=C/C(=O)O)C(C)(C)CCC1` [Retinoic acid, retinoic acid], the “Collagenase expression (%)” value in experiment [1] worked out at 51.3%. Also, the “Relative activity (%) of luciferase (RAR-γ)” value in experiment [2] amounted to 385%. In addition, the “Relative activity (%) of luciferase (RAR-α)” value in experiment [3] amounted to 343%.

(Values after US20150352037A1, “ANTI-AGING COMPOSITION FOR VITALIZATION OF RETINOIC ACID RECEPTOR THAT CONTAINS MIXED EXTRACT OF CHINESE MATRIMONY VINE AND PINE NEEDLES AS EFFECTIVE COMPONENT” (Amorepacific Corporation, priority 2011, published 2015).)
